Data reported in article PMC12598805, “Crystal Structure–Activity Relationship of Some MeO Phenylacrylonitriles: Dual Antimicrobial–Cytotoxic Effects and in Silico Perspectives” (ChemistryOpen, 2025).
Read-outs that look alike come from different tables or passages of the source.

Tests used:
Assay type in all cases: cell-based
[1] = tested on: human lung carcinoma (A549, CCL‐185) cells; experiment: Cytotoxicity, CCK8 cell viability; details: for suppressive effect on cell proliferation / viability: 31.25 to 500 μM; for cell suppressive effect: concentrations of 31.25, 62.5, 125 and 250 μM; for IC50: Homo sapiens, read-out: Cytotoxic activity IC50
Excerpt: (§1) We investigated the cytotoxic effects of acrylonitrile derivatives 2(a–c) on human lung carcinoma (A549, CCL‐185) cells purchased from American Culture Collection and human breast carcinoma (MCF‐7) cells purchased from Republic of Turkey Ministry of Agriculture and Forestry Şap Institute, (HUKUK, 00092502), In addition, mouse fibroblast cells (L929, CCL‐1) purchased from American Culture Collection were used to observe the effects of the compounds on healthy cells. In 25 T Flask, A549 cells were grown in dulbecco's modified eagle's medium, MCF‐7, and L929 cells were grown in eagle's minimum essential medium (EMEM), 10% fetal bovine serum and 1% Penicillin‐Streptomycin at 37 °C in a 5% CO2 and 100% humidified incubator. Cell proliferation was checked every day. Cells were taken into the experiment when the cell density reached 70% to 80%. (See Supporting Information for experimental preparation of biological studies).
(§2) The compounds 2a, 2b, and 2c were dissolved in 99.8% Dimethyl sulfoxide (DMSO) respectively, as
(§3) 10 mM main stock. To prepare the doses of acrylonitrile compounds used in the experiment to be
(§4) applied to the cells, five different concentrations of 31.25; 62.5; 125; 250 and 500 μM were prepared
(§5) by diluting the main stock solutions (10 mM) with the medium selected according to the cells. 5-
(§6) Fluorouracil (5-FU) was selected as a positive control in the study. After the 5-FU main stock solution
(§7) was dissolved with DMSO to be 10 mM, the concentrations to be used were diluted with the selected
(§8) media and made ready for the experimental plan. The concentrations used for 5-FU were prepared in
(§9) the same doses used for acrylonitrile derivatives. For the negative control group, groups containing
(§10) only media and no substance were used. Prepared acrylonitrile compounds and 5-FU concentrations
(§11) were added to the wells in three replicates for each dose, and their effects on cell viability at 24 and 48
(§12) Trypan blue solution (Gibco, 1525061) was used to distinguish between living and dead cells in the
(§13) study. Trypan blue passes uncontrollably through the membrane of dead cells that have lost their cell
(§14) membrane integrity and stains the cell blue. Living cells, on the other hand, are not stained because
(§15) Live cell counts were performed using trypan blue using a
(§16) cell counter (Logos Luna II).
(§17) In order to detach the cells adhering to the flasks from the bottom, 500 μL of 0.25% Trypsin-EDTA
(§18) (Gibco, 15400054) solution was added and treated for five minutes.
(§19) detach from the bottom under an inverted microscope (Zeiss Primovert, Germany), medium containing
(§20) 10% FBS was added. After centrifugation at 300 g for 5 minutes and discarding the medium, 1 mL of
(§21) medium was added and the cells were seeded into 96-well culture dishes as 1x10^4 cells in 100 μL per
(§22) Cell Counting Kit 8 (CCK8; Medchem, 146436) was used to determine cell viability. After adding 20 μL
(§23) of CCK8 solution to each well in the dark, 96-well culture dishes were wrapped with aluminum foil and
(§24) kept in a CO2 incubator at 37 °C for 2 hr. Then, it was automatically read with a microplate reader
(§25) (Chromate) at 450 and 630 nm wavelengths. The following formula was used to determine cell
(§26) % Viability = (Sample Well−Blank) (Negative Control−Blank)×100 (1)
(§27) The half-maximal inhibitory concentration (IC50) was calculated as 50% cell death causing dose
(§28) compared to the control group. All data are given as the mean percent fraction of control ± SEM.
(§29) Statistical analysis was done by one-way analysis of variance (ANOVA), followed by Tukey’s multiple
(§30) comparison tests. IBM SPSS Statistics 22 was used to utilize statistical analysis. […]

[2] = tested on: human breast carcinoma (MCF‐7) cells; experiment: Cytotoxicity, CCK8 cell viability; details: for IC50: Homo sapiens, MCF7, read-out: Cytotoxic activity IC50
Excerpt: as §1, §2, §3, §4, §5, §6, §7, §8, §9, §10, §11, §12, §13, §14, §15, §16, §17, §18, §19, §20, §21, §22, §23, §24, §25, §26, §27, §28, §29, §30

[3] = tested on: Staphylococcus aureus (ATCC 29213); experiment: Agar diffusion, zone of inhibition; details: S.aureus, compounds at 50 mg mL^−1; for zone of inhibition at 50 mg/mL: Staphylococcus aureus, ATCC29213
Excerpt: The antibacterial and antifungal activities were reported utilizing the method described by the Clinical & Laboratory Standards Institute.^[ [31], [32] ^] Agar diffusion method was used to determine the antimicrobial activity of the synthesized substances. The media used were mueller hinton agar (MHA) for bacteria and sabouraud‐dextrose agar (SDA) for fungi (Merck), as recommended by the manufacturer.
The synthesized compounds were initially investigated for their antimicrobial activity to elucidate the potential therapeutic utility against various pathogenic microbes using the agar plate diffusion method. The compounds were tested at a concentration of 50 mg mL^−1, and the antibiotics (ampicillin, kanamycin, and amphotericin B) were used at 5 mg mL^−1. […] K.pneumoniae and B.cereus were resistant to ampicillin, while they were susceptible to kanamycin with inhibition values of 30 and 26 mm, respectively. No antimicrobial activity of the compounds was observed against E.faecalis, S.typhimurium, K.pneumoniae, and for the fungus compared to Amphotericin B (20 mm). […]
Staphylococcus aureus (ATCC 29213) […]
ATCC: American Type Culture Collection; NRRL: Northern Regional Research Laboratory The compounds 2(a-c) obtained could only be completely solubilised with dimethyl sulphoxide (DMSO) and the highest possible stock solutions of 50 mg.mL-1 were prepared. To these wells 50 μl of the previously prepared substances were transferred using sterile micropipette tips. For comparison, Ampicillin and kanamycin antibiotics for bacteria and Amphotericin B antibiotics for fungus were used as positive controls and DMSO was used as negative control. The prepared petri plates were kept at +4°C for about 1 hour and then the bacterial cultures were incubated at 37°C for 18-24 hours and mould cultures at 27-30°C for 48-72 hours. The zones formed were measured millimetrically with callipers. The experiments were performed with three repetitions. […]

Compound	decrease in cell viability ([1]; A549, 24 h, 500 μM) [%]	suppressive effect on cell proliferation / viability ([1]; A549, 24 h)	cell suppressive effect ([1]; A549, 24 h)	decrease in cell viability ([1]; A549, 48 h, 500 μM) [%]	IC50 ([1]; A549, 24 h) [µM]	IC50 ([1]; A549, 48 h) [µM]	IC50 ([2]; MCF‐7, 24 h) [µM]	IC50 ([2]; MCF‐7, 48 h) [µM]	decrease in cell viability ([2]; MCF‐7, 24 h, 31.25 μM) [%]	decrease in cell viability ([2]; MCF‐7, 24 h, 62.5 μM) [%]	decrease in cell viability ([2]; MCF‐7, 24 h, 125 μM) [%]	decrease in cell viability ([2]; MCF‐7, 24 h, 250 μM) [%]	decrease in cell viability ([2]; MCF‐7, 24 h, 500 μM) [%]	decrease in cell viability ([2]; MCF‐7, 48 h, 31.25 μM) [%]	decrease in cell viability ([2]; MCF‐7, 48 h, 62.5 μM) [%]	decrease in cell viability ([2]; MCF‐7, 48 h, 125 μM) [%]	decrease in cell viability ([2]; MCF‐7, 48 h, 250 μM) [%]	decrease in cell viability ([2]; MCF‐7, 48 h, 500 μM) [%]	zone of inhibition [3] [mm]	zone of inhibition at 50 mg/mL [3] [mm]	further results
COc1ccc(C=C(C#N)c2ccccc2)cc1 [2a, 3‐(4‐methoxyphenyl)‐2‐phenylacrylonitrile]	20	did not show any cytotoxic activity	no cell suppressive effect	94	> 500	373	131	44	32	32	48	75	92	44	60	60	60	99	14 ± 0.71	14	decrease in cell viability ([1]; A549, 48 h, 250 μM): 8%
COc1ccc(/C=C(\C#N)c2ccc(F)cc2)cc1 [2b]	9		no cell suppressive effect	71	> 500	422	363	34	23	26	17	23	82	49	68	71	86	91	13 ± 0	13	cell suppressive effect ([1]; A549, 48 h): no cell suppressive effect
COc1ccc(/C=C(\C#N)c2cc(C(F)(F)F)cc(C(F)(F)F)c2)cc1 [2c]		no suppressive effect		56	> 500	473	409	294	9	10	11	17	69	25	27	26	42	85	14 ± 1.41	14	
